Test results from patent publication US20070196442A1, “Method for improving the oral administration of alpha-lipoic acid” (priority 2006, published 2007).

Key:
[1] = double-blind, randomized comparative taste-test of oral alpha-lipoic acid solutions (throat irritation, overall liking); type: in vivo; settings: of seventeen subjects
[2] = background / U.S. Pat. No. 3,562,273; cited from earlier work
[3] = pH of aqueous solution; type: physicochemical; settings: noted by the inventors

Structure (SMILES)	number of subjects ranking the sample as the most irritating of the three samples [1]	pH in a 0.1M aqueous solution [2]	pH of the salt [3]
O=C(O)CCCC[C@@H]1CCSS1 [ALA, 5-[(3R)-dithiolan-3-yl]pentanoic acid]	fourteen		
NC(CO)(CO)CO.O=C(O)CCCCC1CCSS1 (stereo not shown) [TR-ALA, tris(hydroxymethyl) amino methane thioctate]		6.5	6.5 to 7.5
NC(CO)(CO)CO [trometamol, 2-amino-2-(hydroxymethyl)propane-1,3-diol]		10.4	
